Laboratory results as given in patent publication US20250375458A1, “COMPOSITIONS AND METHODS TO COMBAT MULTIDRUG-RESISTANT AND […]-CELL-MEDIATED, O[…] INFECTIOUS DISEASES” (Theralase Technologies, Inc., priority 2024, published 2025).

Columns and labels:
[1] = test system: human Herpes Simplex 1 (HSV-1) virus; assay: HSV-1 virus yield in A549 host cells by plaque forming assay, with Bliss synergy score; format: cell-based; conditions: for HSV-1 yield suppression, single agent: A549 host cells, MOI 0.3, three days, 50 nM RUVIDAR or RUTHERRIN, 1 μM Acyclovir, 0.2% DMSO
Method: A549 human lung cancer cells are used as a host for virus growth, treatment, and later survival quantification. A549 cells are plated overnight, then incubated for 4 hours with or without 50 nM RUVIDAR or RUTHERRIN, with or without 1 μM Acyclovir or 0.2% DMSO (concentration non-toxic for the host cells). After the initial incubation of the host cells with the compounds, the cells are infected with the human Herpes Simplex 1 (HSV-1) virus at the multiplicity of infection (MOI)=0.3 and further incubated for three days (the mentioned compounds are still present in the culture media over the full course of incubation). After that, supernatant is harvested, centrifuged to remove debris, and the yield of infectious virus is determined by plaque forming assay (PFA) using supernatant for the host cells infection. The formed plaques are counted, and virus titer is calculated as Plaque Forming Units/mL=(Plaques number*Dilution)/Volume of Virus Inoculum. Titers normalized for control titer (untreated HSV-1 and host cells) produce relative virus yield (which is equivalent to inhibition rate).
The data are presented as virus yield normalized to Control. To estimate synergistic effect of two combined compounds, synergy Bliss score was calculated, as the difference between the actual inhibiting effect of the combination and the predicted inhibiting effect under “no synergy” assumption (Bliss score): Synergy score=Inhibition_RateCompound1 & Compound2−(Inhibition_RateCompound1+Inhibition_RateCompound2−Inhibition_RateCompound1* Inhibition_RateCompound2).

U87 human glioma cells = assay: Hoechst 33342 dye accumulation by flow cytometry (MFI); format: cell-based; conditions: 3 μM 4 hours, then Hoechst 33342 1 hour
Method: (§1) Hoechst 33342 is a nuclear dye commonly used to quantify drug efflux dynamics and drug accumulation in cells. […] Cells were then collected, and the MFI was determined by flow cytometry.

[2] = test system: A549 human Non-Small Cell Lung Cancer cells; assay: as above; format: cell-based; conditions: 3 μM 4 hours, then Hoechst 33342 1 hour
Method: as §1

CD47 [3] = assay: CD47 expression by flow cytometry in T24 cells; format: cell-based, human; conditions: 3 μM for 2 days, MFI normalized to untreated cells
Method: (§2) In the tests whose results are shown in FIGS. 8A and 8B, T24 human bladder cancer cells or U87 human glioma cells were treated with 3 μM of RUVIDAR or RUTHERRIN for 2 days, and cells were collected and stained with fluorescent-labelled antibodies to CD47 and PD-L1 and analyzed by flow cytometry. MFI was normalized to control untreated cells and expressed as percentage of change.

CD47 [4] = assay: CD47 expression in A549 cells, RUVIDAR or RUTHERRIN with or without ionizing radiation; format: cell-based, human; conditions: 3 μM
Method: In the tests whose results are shown in FIGS. 8C and 8D, U87 human glioma cells or A549 lung cancer cells were treated with 3 μM of RUTHERRIN or RUVIDAR prior to drug activation by 530 nm laser light (photodynamic therapy, PDT) or ionizing radiation. Cells were then collected and stained with fluorescent antibody to CD47 and analyzed by flow cytometry. MFI was normalized to control untreated cells and expressed as percentage of change.

[5] = test system: U87 human glioma cancer cells; assay: Presto Blue cell survival, RUVIDAR with or without N-acetylcysteine; format: cell-based; conditions: overnight
Method: U87 human glioma cancer cells were plated overnight, then treated with different doses of RUVIDAR in the presence or absence of N-acetylcysteine, a known ROS scavenger to quench the increase in ROS production. Cells were incubated overnight, and cell survival was analyzed using Presto Blue assay.

PD-L1 = PD-L1 expression by flow cytometry in T24 cells; format: cell-based, human; conditions: 3 μM for 2 days, MFI normalized to untreated cells
Method: as §2

[6] = 50 nM RUVIDAR or RUTHERRIN plus 1 μM Acyclovir
[7] = 50 nM RUVIDAR or RUTHERRIN plus 0.2% DMSO

CD47, sequence (Q08722 19-323): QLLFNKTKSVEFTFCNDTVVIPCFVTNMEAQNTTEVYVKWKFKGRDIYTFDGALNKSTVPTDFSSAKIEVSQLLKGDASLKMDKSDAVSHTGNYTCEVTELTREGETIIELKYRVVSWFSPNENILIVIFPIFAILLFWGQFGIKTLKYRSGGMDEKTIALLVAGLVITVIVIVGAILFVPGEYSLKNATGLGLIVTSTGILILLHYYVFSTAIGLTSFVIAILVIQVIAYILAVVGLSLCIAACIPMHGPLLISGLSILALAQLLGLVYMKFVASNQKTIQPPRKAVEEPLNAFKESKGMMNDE
PD-L1, sequence (Q9NZQ7 19-290): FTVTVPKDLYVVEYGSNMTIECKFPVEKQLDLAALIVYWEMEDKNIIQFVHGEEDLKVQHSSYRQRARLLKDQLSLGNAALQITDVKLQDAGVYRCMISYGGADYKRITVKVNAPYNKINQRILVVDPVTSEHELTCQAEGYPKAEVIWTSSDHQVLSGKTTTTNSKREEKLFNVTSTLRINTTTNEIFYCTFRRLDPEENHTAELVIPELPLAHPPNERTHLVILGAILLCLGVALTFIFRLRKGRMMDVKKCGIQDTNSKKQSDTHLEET

Compound	HSV-1 yield suppression, combined with Acyclovir [1, 6]	synergy score (Bliss), combined with Acyclovir [1, 6]	HSV-1 yield suppression, combined with DMSO [1, 7]	synergy score (Bliss), combined with DMSO [1, 7]	HSV-1 yield suppression, single agent [1]	Hoechst 33342 dye accumulation (MFI) (U87 human glioma cells)	Hoechst 33342 dye accumulation (MFI) [2]	percentage change in expression of CD47 (CD47 [3])	percentage change in CD47 expression, drug alone (CD47 [4]; no radiation)	percentage change in CD47 expression, with ionizing radiation (CD47 [4]; then ionizing radiation)	cell kill percent ([5]; RUVIDAR only, different doses)	cell kill percent in the presence of N-acetylcysteine ([5]; RUVIDAR plus ROS scavenger N-acetylcysteine)	percentage change in expression of PD-L1 (PD-L1)
Ru(4,4′-dimethyl-2,2′-bipyridine)2(2-(2′,2″:5″,2″-terthiophene)-imidazo[4,5-f][1,10] phenanthroline) [RUVIDAR]	significantly potentiated	0.040±0.013	significantly potentiated	0.030±0.010	anti-viral effect to various degrees	increases dye accumulation inside the cells	increases dye accumulation inside the cells	significantly reduced	significantly reduced	more significant reduction	dose-dependent increase in cell kill	significantly reduced	significantly reduced
Nc1nc2c(ncn2COCCO)c(=O)[nH]1 [Acyclovir, reference compound]	–	–	–	–	anti-viral effect to various degrees	–	–	–	–	–	–	–	–
C[S+](C)[O-] [DMSO]	–	–	–	–	anti-viral effect to various degrees	–	–	–	–	–	–	–	–
